Consider 48 compounds from the Deep4Chem optical property database.

The series in a line: photoluminescence quantum yield (fraction); solvent given as SMILES.
Setting [1] is: in c1ccc2c(c1)c1ccccc1n2-c1ccc(-c2ccc(-n3c4ccccc4c4ccccc43)cc2)cc1.

As to `c1ccc2c(c1)OP1(=NP(Oc3ccc4ccc5cccc6ccc3c4c56)(Oc3ccc4ccc5cccc6ccc3c4c56)=NP(Oc3ccc4ccc5cccc6ccc3c4c56)(Oc3ccc4ccc5cccc6ccc3c4c56)=N1)Oc1ccccc1-2`, the photoluminescence quantum yield (in ClCCl) was 0.89.

With `O=P1(c2ccccc2)c2ccc(N3c4ccccc4Sc4ccccc43)cc2-c2cc(N3c4ccccc4Sc4ccccc43)ccc21`, the photoluminescence quantum yield reads like this: (in Cc1ccccc1) 0.59; under setting [1], 0.53.

Regarding `Nc1ccc2c3c(cccc13)C(=O)c1ccccc1-2`, the photoluminescence quantum yield is 0.1 (in CC#N); 0.11 (in CC(C)=O); 0.03 (in CC(C)O); 0.34 (in CCCCOCCCC); 0.21 (in CCOC(C)=O); 0.26 (in CCOCC). In addition, the photoluminescence quantum yield by setting is: (in CO) 0.02; (in Cc1ccccc1) 0.3; (in Clc1ccccc1) 0.25; (in N#Cc1ccccc1) 0.14; (in O=C1CCCCC1) 0.15.

In turn, `F[Si](c1ccccc1)(c1ccccc1)c1cccc2ccccc12` returned a photoluminescence quantum yield (in C1CCOC1) of 0.14.

For the compound `CCC1=C(C)C(=O)n2c1cc1c(C)cc(C)n1c2=O`, the photoluminescence quantum yield stood at 0.89 (in CO), 0.92 (in CS(C)=O), 0.96 (in ClC(Cl)Cl) and 1 (in c1ccccc1).

Regarding `COc1cc(C2=c3c(c4ccc(C(C)(C)C)cc4c4cc(C(C)(C)C)ccc34)=[N+]3C2=Nc2c(-c4cc(OC)c(OC)c(OC)c4)c4c5ccc(C(C)(C)C)cc5c5cc(C(C)(C)C)ccc5c4n2[B-]3(F)F)cc(OC)c1OC`, where the note is “in Cc1ccccc1”, the photoluminescence quantum yield amounted to 0.01.

`CN(C)c1ccc(/C=C/c2cnc3ccccc3n2)cc1`: the photoluminescence quantum yield (in ClCCl) stood at 0.59.

Consider `N#Cc1c(-n2c3ccccc3c3ccccc32)c(F)c(-n2c3ccccc3c3ccccc32)c(F)c1-n1c2ccccc2c2ccccc21`, for which the photoluminescence quantum yield is 0.76 (in Cc1ccccc1) and 0.74 (in c1ccc([Si](c2ccccc2)(c2ccc(-n3c4ccccc4c4ccccc43)cc2)c2ccc(-n3c4ccccc4c4ccccc43)cc2)cc1).

On to `Cc1ccc(/C=C/c2ccccc2-[n+]2noc([O-])c2-c2ccccc2)cc1`, for which the photoluminescence quantum yield reads like this: (in C1CCCCC1) 0.0018; (in CC#N) 0.0048.

As for `CCc1c(C)c2n(c1C)[B-](F)(F)[N+]1=C(C=C3C=Cc4ccccc43)C=CC1=C2C`, the photoluminescence quantum yield (in C1CCCCC1) is 0.02.

Turning to `Nc1cccc2c1C(=O)NC2=O`, the photoluminescence quantum yield by setting is: (in C1CCOC1) 0.97; (in CCO) 0.74; (in CN(C)C=O) 0.66.

`CC(C)(C)c1cc(-c2cc3nc4c5ccc(N6c7ccccc7Oc7ccccc76)cc5c5cc(N6c7ccccc7Oc7ccccc76)ccc5c4nc3cc2-c2cc(C(C)(C)C)cc(C(C)(C)C)c2)cc(C(C)(C)C)c1` displayed a photoluminescence quantum yield under setting [1] of 0.83.

Where the note is “in ClCCl”, `COC(=O)C1=C(C(=O)OC)C2=C[C@H]3c4ccccc4[C@]2([Se]1)c1ccccc13` had a photoluminescence quantum yield of 0.86.

Regarding `Cc1nc2cccc(-c3nc4ccc(Cl)cc4o3)c2c(=O)[nH]1`, the photoluminescence quantum yield (in CN(C)C=O) came out at 0.275.

Regarding `CCC1=C(C)C2=C(c3cc(C(=O)Cl)cc(C(=O)Cl)c3)c3c(C)c(CC)c(C)n3[B-](F)(F)[N+]2=C1C`, the photoluminescence quantum yield (in C1CCOC1) was 0.61; the photoluminescence quantum yield (in CC#N) is 0.22; the photoluminescence quantum yield (in CN(C)C=O) was 0.39; the photoluminescence quantum yield (in Cc1ccccc1) amounted to 0.57; the photoluminescence quantum yield (in ClC(Cl)Cl) turned out to be 0.53.

With `CC1=[N+]2C(=Cc3c4c(cn3[B-]2(F)F)-c2nc-4c(-c3ccccc3)c3ccc([nH]3)c(-c3ccccc3)c3nc(c(-c4ccccc4)c4ccc([nH]4)c2-c2ccccc2)C=C3)C(C)C1` (centres undefined), the photoluminescence quantum yield (in ClCCl) was found to be 0.04.

Under “in C1COCCO1”, `COC(=O)c1ccc(/C=C2\C=C(c3ccc(C#N)cc3)N(CC(C)C)C2=O)cc1` gave a photoluminescence quantum yield of 0.192.

`COc1cccc(OC)c1-c1c2ccc(=[N+]3CCCCC3)cc-2oc2cc(N3CCCCC3)ccc12`: the photoluminescence quantum yield (in ClCCl) is 0.86.

`COc1ccccc1-c1nc2c3ccccc3c3ccccc3c2n1-c1ccc(C)cc1` displayed a photoluminescence quantum yield (in Cc1ccccc1) of 0.284.

As to `Cc1ccc(-c2c3nc(c(-c4ccc(C)cc4)c4ccc([nH]4)c(-c4ccc(OC(=O)C(C)c5ccccc5)cc4)c4nc(c(-c5ccc(C)cc5)c5ccc2[nH]5)C=C4)C=C3)cc1` (centres undefined), the photoluminescence quantum yield (in ClCCl) is 0.123.

On to `O=S1(=O)c2ccc(-c3ccc4c(c3)c3ccccc3n4-c3ccccc3)cc2C2(c3cc(-c4ccc5c(c4)c4ccccc4n5-c4ccccc4)ccc31)c1cc(-c3ccc4c(c3)c3ccccc3n4-c3ccccc3)ccc1S(=O)(=O)c1ccc(-c3ccc4c(c3)c3ccccc3n4-c3ccccc3)cc12`, for which the photoluminescence quantum yield (in CC1CCCO1) was 0.83.

Under “in ClC(Cl)Cl”, `Cc1ccccc1CN(Cc1ccccc1C)c1nc(C#N)c(N(Cc2ccccc2C)Cc2ccccc2C)nc1C#N` displayed a photoluminescence quantum yield of 0.73.

In turn, `CN(C)c1ccc(-c2ccc(-c3ccc(N(C)C)cc3)c3nc(-c4ccccc4)c(-c4ccccc4)nc23)cc1` gave a photoluminescence quantum yield (in ClC(Cl)Cl) of 0.3.

On to `CCCC1(CCC)c2cc(-c3ccc(-c4ccc(OC)cc4)o3)ccc2-c2ccc(-c3ccc(-c4ccc(OC)cc4)o3)cc21`, for which the photoluminescence quantum yield (in C1CCCCC1) is 0.79.

`CC1=[N+]2C(=C(c3c4ccccc4c(-c4ccccc4)c4ccccc34)c3ccc(C)n3[B-]2(F)F)C=C1`: the photoluminescence quantum yield by setting is: (in CC#N) 0.004; (in CCCCCC) 0.773; (in CCO) 0.006; (in CN(C)C=O) 0.004; (in Cc1ccccc1) 0.141; (in ClCCl) 0.007.

Turning to `CC1(C)c2cc(C#N)ccc2-c2ccc(N3c4ccccc4Oc4ccccc43)cc21`, the photoluminescence quantum yield was found to be 0.044 (in C1CCCCC1); 0.08 (in C1CCOC1); 0.001 (in CC#N); 0.089 (in Cc1ccccc1); 0.11 (in ClC(Cl)Cl).

With `c1ccc2cc3cc(-c4cc(-c5nccs5)nc(-c5nccs5)c4)ccc3cc2c1`, the photoluminescence quantum yield is, setting by setting: (in CC#N) 0.564; (in CCCCCC) 0.108; (in CO) 0.194; (in ClC(Cl)Cl) 0.433.

Regarding `CCOC(=O)c1sc(-c2ccc(-c3cc(-c4cccs4)c(C(=O)OCC)s3)s2)cc1-c1cccs1`, the photoluminescence quantum yield (in ClCCl) turned out to be 0.18.

`O=c1oc2c(ccc3cc(O)ccc32)nc1-c1ccccc1`: the photoluminescence quantum yield (in c1ccccc1) came to 0.604.

For the setting “in ClCCl”, `COC(=O)c1cc(=O)n(C)c2cc(-c3ccccc3N(C)C)sc12` registered a photoluminescence quantum yield of 0.17.

Turning to `N#C/C(=C\c1ccncc1)c1nc(-c2ccccc2)cs1`, the photoluminescence quantum yield by setting is: (in CC#N) 0.263; (in CCO) 0.6; (in CN(C)C=O) 0.406; (in CS(C)=O) 0.124; (in Cc1ccccc1) 0.346; (in ClCCl) 0.086.

Take `COC(=O)c1ccc(/C=C/C(F)(F)F)c(N)c1`: the photoluminescence quantum yield (in C1CCOC1) turned out to be 0.74.

Consider `O=CN1N=C(c2ccc(Br)cc2)C[C@@H]1c1ccccc1`, for which the photoluminescence quantum yield is 0.25 (in C1CCCCC1); 0.25 (in C1COCCO1); 0.14 (in CC#N); 0.13 (in CCO); 0.18 (in CCOC(C)=O); 0.05 (in CO). Besides, the photoluminescence quantum yield is 0.11 (in CS(C)=O), 0.01 (in Cc1ccccc1) and 0.02 (in ClC(Cl)(Cl)Cl).

Take `CCOC(CN1C(=O)C2=C(c3ccsc3)N(CC(OCC)OCC)C(=O)C2=C1c1ccsc1)OCC`: under “in ClC(Cl)Cl”, the photoluminescence quantum yield is 0.9.

For the compound `CN(C)c1ccc(C2=Nc3scc(-c4ccccc4)[n+]3[B-](F)(F)O2)cc1`, the photoluminescence quantum yield runs as follows: (in C1CCOC1) 0.75; (in CC#N) 0.08; (in Cc1ccccc1) 0.94; (in ClCCl) 0.89.

Regarding `c1cc2ccc3cc4[nH]c(-c5cc6c(cc7ccc8cccc9ccc6c7c89)[nH]5)cc4c4ccc(c1)c2c34`, for the setting “in C1CCOC1”, the photoluminescence quantum yield amounted to 0.5.

The compound `N#Cc1ccc(-c2pc3ccccc3s2)cc1` (centres undefined) yielded a photoluminescence quantum yield (in CC#N) of 0.017.

The compound `C(=C\c1ncnc2ccccc12)/c1ccc(N2CCCCC2)cc1` showed a photoluminescence quantum yield (in ClCCl) of 0.12.

In turn, `CCOC(=O)/N=c1/oc2cc(OC)cc(OC)c2cc1C#N` returned a photoluminescence quantum yield (in ClCCl) of 0.059.

`COc1cc(OC)cc(C2=C3C(C)=C(I)C(C)=[N+]3[B-](F)(F)n3c(/C=C/c4c[nH]c5ccccc45)c(I)c(C)c32)c1` gave a photoluminescence quantum yield (in C1CCOC1) of 0.2, a photoluminescence quantum yield (in CS(C)=O) of 0.17 and a photoluminescence quantum yield (in ClCCl) of 0.19.

In turn, `CC[C@H](C)[C@H](Nc1c(C(C)=O)c(=O)oc2cc(N(C)C)ccc12)C(=O)O` gave a photoluminescence quantum yield (in ClCCl) of 0.0031.

As for `CCCCCCN1C(=O)c2cccc3c(-c4cc5ccccc5s4)ccc(c23)C1=O`, for the setting “in ClC(Cl)Cl”, the photoluminescence quantum yield was 0.28.

As for `O=C(c1ccc(C(=C(c2ccccc2)c2ccccc2)c2ccccc2)cc1)c1ccc(-n2c3ccccc3c3ccccc32)cc1`, where the note is “in C1CCOC1”, the photoluminescence quantum yield was 0.208.

Regarding `COc1ccc(C#Cc2ccc(C#Cc3ccc(C#Cc4ccccc4C#N)cc3C#N)cc2C#N)cc1`, the photoluminescence quantum yield (in C1CCOC1) was found to be 0.972; the photoluminescence quantum yield (in CC#N) was found to be 0.973; the photoluminescence quantum yield (in CN(C)C=O) was 0.949; the photoluminescence quantum yield (in ClC(Cl)Cl) is 0.982; the photoluminescence quantum yield (in c1ccccc1) turned out to be 0.972.

`Cc1cc(C)cc(C)c1` displayed a photoluminescence quantum yield (in C1CCCCC1) of 0.27.

Under “in ClCCl”, `F[B-]12Oc3ccccc3-c3c4[n+]5c(c([n+]31)-c1ccccc1O2)-c1ccccc1O[B-]5(F)Oc1ccccc1-4` registered a photoluminescence quantum yield of 0.29.

`COc1ccc(-c2cc3c(ccc4sc5ccc6sc(-c7ccc(C#N)cc7)cc6c5c43)s2)cc1`: the photoluminescence quantum yield (in ClCCl) was 0.09.

`c1ccc(-n2c3c(c4c2-c2ccccc2C42c4ccccc4-c4ccccc42)C2(c4ccccc4-c4ccccc42)c2ccccc2-3)cc1`: where the note is “in C1CCOC1”, the photoluminescence quantum yield was 0.37.
